From patent US12383624B2, “Cargo delivery system and composition comprising the same” (SEOUL NATIONAL UNIVERSITY R&DB FOUNDATION, priority 2018, dated 2025)
Blank lines part the entries; values can stand above or below the compound they belong to.

Legend:
[1] = test system: Cyclin D1; experiment: target protein degradation by immunoblotting (Experimental Example 6); format: cell-based, human; settings: A549 cell line, 24 hours
Protocol: (§1) In order to evaluate the target proteion degradation efficacy by Examples 14 to 33 according the disclosure, the following experiment was conducted.
(§2) First, as cell lines primarily expressing the target protein, Human kidney-derived cancer cells, HEK293T (ATCC, CRL-3216), human prostate-derived cancer cells, LNcap (Korean Cell Line Bank, Korean Cell Line Research Foundation, KCLB No. 80018), mouse embryonic fibroblast, MEF (ATCC, SCRC-1008), human cervical cancer cells, HeLa (Korean Cell Line Bank, Korean Cell Line Research Foundation, KCLB No. 10002), human blood-derived cells, K562 (Korean Cell Line Bank, Korean Cell Line Research Foundation, KCLB No. 10243), human blood-derived cells, THP-1 (Korean Cell Line Bank, Korean Cell Line Research Foundation, KCLB No. 40202), human lung-derived cancer cells, A549 (Korean Cell Line Bank, Korean Cell Line Research Foundation, KCLB No. 10185), human breast-derived cancer cells, MCF7 (Korean Cell Line Bank, Korean Cell Line Research Foundation, KCLB No. 30022), human neuroblastoma, SH-SY5Y cell lines (Korean Cell Line Bank, Korean Cell Line Research Foundation, KCLB No. 22266), human pancreatic cancer cells, PANC-1 (Korean Cell Line Bank, Korean Cell Line Research Foundation, KCLB No. 21469) were cultured, respectively, in an incubator maintained at 5% carbon dioxide, using DMEM containing 10% FBS and 1% streptomycin/penicillin, RPMI1640, or MEM medium, and then the respective cells were dispensed in 12-well plate. Additional incubation was performed for 24 hours to ensure that each cell completely fixed to the surface of the plate.
(§3) In order to confirm whether Compounds A to W of Examples 14 to 33 degrade the target protein respectively, the cultured cells were treated with the compound of each example for 24 hours and then collected.
(§4) In this case, HEK293T, which is human kidney-derived cancer cells, LNcap, which is human prostate-derived cancer cells, and MEF cell line, which is mouse embryonic fibroblasts, were treated with Example 14 (Compound A). HEK293T, which is human kidney-derived cancer cells, was treated with Example 15 (Compound B). HEK293T cell line, which is human kidney-derived cancer cells, and HeLa cell line, which is cervical-derived cancer cells, were treated with Example 16 (Compound C). HEK293T cell line, which is human kidney-derived cancer cells, was treated with Example 17 (Compound D). K562 cell line, which is human blood-derived cells, was treated with Example 18 (Compound E). HEK293T cell line, which is human kidney-derived cancer cells, was treated with Example 19 (Compound F). THP-1 cell line, which is human blood-derived cells, was treated with Example 20 (Compound G). A549 cell line, which is human lung-derived cancer cells, was treated with Example 21 (Compound H). A549 cell line, which is human lung-derived cancer cells, was treated with Example 22 (Compound I). MCF7 cell line, which is human breast-derived cancer cells, was treated with Example 23 (Compound J). HEK293T cell line, which is […], was treated with Example 24 (Compound L). SH-SY5Y, which is human neuroblastoma, and HeLa cell line, which is cervical-derived cancer cells, were treated with Example 25 (Compound M). THP-1 cell line, which is human blood-derived cells, was treated with Example 26 (Compound P). SH-SY5Y, which is human neuroblastoma, and HeLa cell line, which is cervical-derived cancer cells, were treated with Example 27 (Compound Q). SH-SY5Y, which is human neuroblastoma, and HeLa cell line, which is cervical-derived cancer cells, were treated with Example 28 (Compound R). HeLa cell line, a human cervical-derived cancer cell, was treated with Example 29 (Compound S). SH-SY5Y cell line, which is human neuroblastoma, was treated with Example 30 (Compound T). SH-SY5Y cell line, which is human neuroblastoma, was treated with Example 31 (Compound U). PANC-1 cell line, which is human pancreatic-derived cancer cells, was treated with Example 32 (Compound V). […]

[2] = target: T1, STAT3 (Homo sapiens, UniProt P40763); experiment: as above; format: cell-based; settings: A549 cell line, 24 hours
T1 construct: as cell lines primarily expressing the target protein; endogenous in cells; host or cells: A549
T1 sequence (P40763 whole entry): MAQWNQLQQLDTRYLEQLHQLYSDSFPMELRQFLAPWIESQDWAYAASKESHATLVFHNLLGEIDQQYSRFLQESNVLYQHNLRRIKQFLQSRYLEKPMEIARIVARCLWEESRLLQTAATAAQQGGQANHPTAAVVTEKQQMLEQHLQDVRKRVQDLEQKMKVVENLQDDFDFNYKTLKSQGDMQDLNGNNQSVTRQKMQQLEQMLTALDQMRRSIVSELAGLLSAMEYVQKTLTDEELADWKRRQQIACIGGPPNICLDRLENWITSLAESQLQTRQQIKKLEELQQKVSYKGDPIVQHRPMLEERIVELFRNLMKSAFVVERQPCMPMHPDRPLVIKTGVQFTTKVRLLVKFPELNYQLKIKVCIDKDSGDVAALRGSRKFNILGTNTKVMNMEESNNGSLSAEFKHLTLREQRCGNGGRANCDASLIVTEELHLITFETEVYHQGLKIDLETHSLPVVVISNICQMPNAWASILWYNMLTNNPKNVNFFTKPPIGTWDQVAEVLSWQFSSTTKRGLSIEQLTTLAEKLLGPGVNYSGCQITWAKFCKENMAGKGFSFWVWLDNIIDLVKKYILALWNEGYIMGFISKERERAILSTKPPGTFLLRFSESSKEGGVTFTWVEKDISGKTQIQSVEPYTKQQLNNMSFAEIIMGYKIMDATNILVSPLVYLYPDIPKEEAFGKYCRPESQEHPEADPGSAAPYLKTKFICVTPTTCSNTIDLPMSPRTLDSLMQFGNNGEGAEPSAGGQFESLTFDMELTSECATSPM
Protocol: as §1, §2, §3, §4

[3] = target: T2, p-STAT3 (Homo sapiens, UniProt P40763); experiment: as above; format: cell-based; settings: A549 cell line, 24 hours
T2 construct: endogenous in cells; host or cells: A549
T2 sequence (P40763 whole entry): as above
Protocol: as §1, §2, §3, §4

[4] = target: T3, Desmin Mut(L385P) (Homo sapiens, UniProt P17661, L385P); experiment: as above; format: cell-based; settings: 24 hours
T3 construct: expressed in transfected cells; host or cells: HeLa (Compound S); SH-SY5Y or HeLa (Compounds M, Q, R)
T3 sequence (P17661 whole entry L385P): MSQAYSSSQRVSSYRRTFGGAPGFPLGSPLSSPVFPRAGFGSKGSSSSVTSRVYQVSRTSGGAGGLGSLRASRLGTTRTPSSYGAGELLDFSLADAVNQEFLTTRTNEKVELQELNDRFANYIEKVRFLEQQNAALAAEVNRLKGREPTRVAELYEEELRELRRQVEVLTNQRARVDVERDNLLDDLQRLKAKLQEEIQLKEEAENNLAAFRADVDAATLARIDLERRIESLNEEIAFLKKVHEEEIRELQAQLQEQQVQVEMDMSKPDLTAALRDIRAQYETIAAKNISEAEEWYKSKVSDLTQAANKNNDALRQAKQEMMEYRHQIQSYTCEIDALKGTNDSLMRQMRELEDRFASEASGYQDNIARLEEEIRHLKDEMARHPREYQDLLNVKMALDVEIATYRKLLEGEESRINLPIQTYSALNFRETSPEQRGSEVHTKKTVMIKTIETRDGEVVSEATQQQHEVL
Protocol: as §1, §2, §3, §4

[5] = target: T4, RIPK2 (Homo sapiens, UniProt O43353); experiment: as above; format: cell-based; settings: THP-1 cell line, 24 hours
T4 construct: as cell lines primarily expressing the target protein; endogenous in cells; host or cells: THP-1
T4 sequence (O43353 whole entry): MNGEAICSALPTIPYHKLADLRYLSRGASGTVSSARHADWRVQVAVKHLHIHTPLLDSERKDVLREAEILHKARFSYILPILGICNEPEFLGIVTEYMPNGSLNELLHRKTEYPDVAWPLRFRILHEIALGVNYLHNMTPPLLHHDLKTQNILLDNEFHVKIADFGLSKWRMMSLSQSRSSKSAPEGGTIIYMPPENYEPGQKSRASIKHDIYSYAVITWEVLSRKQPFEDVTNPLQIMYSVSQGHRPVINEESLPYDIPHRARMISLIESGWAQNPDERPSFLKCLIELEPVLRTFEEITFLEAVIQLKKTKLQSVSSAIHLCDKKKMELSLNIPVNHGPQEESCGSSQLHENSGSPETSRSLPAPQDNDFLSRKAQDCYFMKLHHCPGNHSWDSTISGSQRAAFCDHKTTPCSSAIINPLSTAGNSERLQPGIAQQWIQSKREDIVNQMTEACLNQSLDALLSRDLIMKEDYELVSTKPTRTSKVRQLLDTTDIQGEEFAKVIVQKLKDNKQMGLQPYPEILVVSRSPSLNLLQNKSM
Protocol: as §1, §2, §3, §4

[6] = test system: Tau; experiment: as above; format: cell-based, human; settings: 24 hours
Protocol: as §1, §2, §3, §4

[7] = target: T5, α-synuclein(A53T) (Homo sapiens, UniProt P37840, A53T); experiment: as above; format: cell-based; settings: 24 hours
T5 construct: expressed in transfected cells; host or cells: SH-SY5Y (Compound U); SH-SY5Y or HeLa (Compound M)
Protocol: as §1, §2, §3, §4

[8] = target: T6, p62 protein (Homo sapiens, UniProt Q13501); experiment: oligomerization activity of p62 protein in cultured cells by immunoblotting; format: cell-based; design: dose or concentration left out as unconfirmed; settings: HEK293 cell line, 2 hr, unlike DMSO control
T6 construct: endogenous in cells; host or cells: HEK293
T6 sequence (Q13501 whole entry): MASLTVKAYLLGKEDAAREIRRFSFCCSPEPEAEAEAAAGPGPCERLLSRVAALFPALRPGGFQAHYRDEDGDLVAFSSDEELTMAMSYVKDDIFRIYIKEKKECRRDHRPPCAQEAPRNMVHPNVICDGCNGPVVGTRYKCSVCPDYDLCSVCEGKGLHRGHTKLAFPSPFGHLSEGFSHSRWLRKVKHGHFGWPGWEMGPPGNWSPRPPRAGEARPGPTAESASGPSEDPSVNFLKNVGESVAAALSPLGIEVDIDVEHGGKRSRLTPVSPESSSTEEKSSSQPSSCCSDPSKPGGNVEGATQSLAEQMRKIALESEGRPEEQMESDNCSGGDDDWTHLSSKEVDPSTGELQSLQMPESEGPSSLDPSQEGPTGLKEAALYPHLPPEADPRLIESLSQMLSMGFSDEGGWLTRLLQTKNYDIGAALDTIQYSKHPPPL
Protocol: In order to evaluate the oligomerization activity efficacy of p62 protein according to examples of the disclosure, HEK293 cell line, which is human embryonic kidney-derived cell, was collected. The cell lines were treated with Example 3 (PBA 1104), Example 4 (PBA 1105), Example 5 (Anle F105), Example 8 (PHTPP 1304), Example 11 (BTA-1 1104), Example 12 (Curcumin 1204), Example 1 (ATC 1105), Example 2 (ATC 1104), Example 10 (Resv 1105), Example 13 (Rilu 204) according to the examples, YTK-1105 compound, which is an autophagy targeting ligand compound as a comparative example, and DMSO as a control […], 2 hr, respectively.
In order to measure intracellular p62 protein activation and oligomerization in cells according to the treatment with these compounds, the respective cells were dispensed into a 100 pi dish. The cells were collected after further culturing for 24 hours so that the cells were completely attached to the surface of the plate. 100 μl of lysis buffer (20 mM Tris (pH 7.4), 150 mM NaCl, 1% Triton X-100, 2 mM NaF, 2 mM EDTA, 2 mM beta-glycerophosphate, 5 mM sodium orthovanadate, 1 mM PMSF, leupeptin, aproteinin) were injected into each sample and the cells were lysed. Based on the measured total protein concentration, each sample was treated with test compounds at room temperature for 2 hours, and then a sample buffer was added and allowed to react at 95° C. for 10 minutes. […]

[9] = SH-SY5Y and HeLa cell lines treated

Structure (SMILES): NC(=O)CC[C@H](NC(=O)[C@@H]1CC[C@@H]2CCN(C(=O)CCCOCCOCCOCCOCCNC[C@@H](O)COc3ccc(OCc4ccc(F)cc4)c(OCc4ccc(F)cc4)c3)C[C@H](NC(=O)c3cc4cc(C(F)(F)P(=O)(O)O)ccc4[nH]3)C(=O)N21)C(=O)NC(c1ccccc1)c1ccccc1 [Example 21, ((2-(((5S,8S,10aR)-8-(((S)-5-amino-1-(benzhydrylamino)-1,5-dioxopentan-2-yl)carbamoyl)-3-((R)-1-(3,4-bis((4-fluorobenzyl)oxy)phenoxy)-2-hydroxy-7,10,13,16-tetraoxa-4-azaicosan-20-oyl)-6-oxodecahydropyrrolo[1,2-a][1,5]diazocin-5-yl)carbamoyl)-1H-indol-5-yl)difluoromethyl)phosphonic acid]
degradation of target protein Cyclin D1 (decrease in level vs Control) [1]: can be degraded
degradation of target protein STAT3 (decrease in level vs Control) [2]: can be degraded
degradation of target protein p-STAT3 (decrease in level vs Control) [3]: can be degraded

degradation of target protein Desmin Mut(L385P) (decrease in level vs Control) ([4]; HeLa cell line): can be degraded
Structure (SMILES): O=C(CCCc1ccccc1)NCCOCCOCCOCCNC[C@@H](O)COc1ccc(OCc2ccc(F)cc2)c(OCc2ccc(F)cc2)c1 [Example 29, (R)—N-(15-(3,4-bis((4-fluorobenzyl)oxy)phenoxy)-14-hydroxy-3,6,9-trioxa-12-azapentadecyl)-4-phenylbutanamide]

degradation of target protein RIPK2 (decrease in level vs Control) [5]: can be degraded
Structure (SMILES): CC(C)(C)S(=O)(=O)c1cc2c(Nc3ccc4scnc4c3)ncnc2cc1OCCNCCOCCOCCNCc1cccc(OCc2ccccc2)c1 [Example 20, N-(7-((1-(3-(benzyloxy)phenyl)-5,8-dioxa-2,11-diazatridecan-13-yl)oxy)-6-(tert-butylsulfonyl)quinazolin-4-yl)benzo[d]thiazol-5-amine]

degradation of target protein Desmin Mut(L385P) (decrease in level vs Control) [4, 9]: can be degraded
degradation of target protein α-synuclein(A53T) (decrease in level vs Control) [7, 9]: can be degraded
Structure (SMILES): O=C(c1cc(-c2cc3c(cc2C(=O)N2Cc4ccccc4C[C@H]2CN2CCN(CCOCCOCCOCCOCCNCc4ccc(OCc5ccccc5)c(OCCc5ccccc5)c4)CC2)OCO3)n2c1CCCC2)N(c1ccccc1)c1ccc(O)cc1 [Example 25, (S)-3-(6-(3-((4-(1-(4-(benzyloxy)-3-phenethoxyphenyl)-5,8,11,14-tetraoxa-2-azahexadecan-16-yl)piperazin-1-yl)methyl)-1,2,3,4-tetrahydroisoquinoline-2-carbonyl)benzo[d][1,3]dioxol-5-yl)-N-(4-hydroxyphenyl)-N-phenyl-5,6,7,8-tetrahydroindolizine-1-carboxamide]
degradation of target protein Tau (decrease in level vs Control) [6, 9]: can be degraded

degradation of target protein α-syn. Mut(A53T) (decrease in level vs Control) ([7]; SH-SY5Y cell line): can be degraded
Structure (SMILES): CN(CCOCCOCCOCCNCc1ccc(OCc2ccccc2)c(OCc2ccccc2)c1)c1ccc2nc3ccc(=[N+](C)C)cc-3sc2c1 [Example 31, N-(7-((1-(3,4-bis(benzyloxy)phenyl)-5,8,11-trioxa-2-azatridecan-13-yl) (methyl)amino)-3H-phenothiazin-3-ylidene)-N-methylmethanaminium 2,2,2-trifluoroacetate]
degradation of target protein Tau (decrease in level vs Control) ([6]; SH-SY5Y cell line): can be degraded

degradation of target protein RIPK2 (decrease in level vs Control) [5]: can be degraded
Structure (SMILES): CC(C)(C)S(=O)(=O)c1cc2c(Nc3ccc4scnc4c3)ncnc2cc1OCCNCCOCCOCCOCCOCCOCCNC[C@@H](O)COc1ccc(OCc2ccc(F)cc2)c(OCc2ccc(F)cc2)c1 [Example 26, (R)-1-((4-(benzo[d]thiazol-5-ylamino)-6-(tert-butylsulfonyl)quinazolin-7-yl)oxy)-24-(3,4-bis((4-fluorobenzyl)oxy)phenoxy)-6,9,12,15,18-pentaoxa-3,21-diazatetracosan-23-ol]

Structure (SMILES): NC(=O)CC[C@H](NC(=O)[C@@H]1CC[C@@H]2CCN(C(=O)CCCOCCOCCOCCOCCNCc3ccc(OCc4ccccc4)c(OCc4ccccc4)c3)C[C@H](NC(=O)c3cc4cc(C(F)(F)P(=O)(O)O)ccc4[nH]3)C(=O)N21)C(=O)NC(c1ccccc1)c1ccccc1 [Example 22, ((2-(((5S,8S,10aR)-8-(((S)-5-amino-1-(benzhydrylamino)-1,5-dioxopentan-2-yl)carbamoyl)-3-(1-(3,4-bis(benzyloxy)phenyl)-5,8,11,14-tetraoxa-2-azaoctadecan-18-oyl)-6-oxodecahydropyrrolo[1,2-a][1,5]diazocin-5-yl)carbamoyl)-1H-indol-5-yl)difluoromethyl)phosphonic acid]
degradation of target protein Cyclin D1 (decrease in level vs Control) [1]: can be degraded
degradation of target protein STAT3 (decrease in level vs Control) [2]: can be degraded
degradation of target protein p-STAT3 (decrease in level vs Control) [3]: can be degraded

degradation of target protein Desmin Mut(L385P) (decrease in level vs Control) [4, 9]: can be degraded
Structure (SMILES): O=C(CCCc1ccccc1)NCCOCCOCCOCCOCCOCCNCc1ccc(OCc2ccccc2)c(OCc2ccccc2)c1 [Example 27, N-(1-(3,4-bis(benzyloxy)phenyl)-5,8,11,14,17-pentaoxa-2-azanonadecan-19-yl)-4-phenylbutanamide]
degradation of target protein Tau (decrease in level vs Control) [6, 9]: can be degraded

degradation of target protein Desmin Mut(L385P) (decrease in level vs Control) [4, 9]: can be degraded
Structure (SMILES): O=C(CCCc1ccccc1)NCCOCCOCCOCCOCCOCCOCCOCCNCc1ccc(OCc2ccccc2)c(OCc2ccccc2)c1 [Example 28, N-(1-(3,4-bis(benzyloxy)phenyl)-5,8,11,14,17,20,23-heptaoxa-2-azapentacosan-25-yl)-4-phenylbutanamide]
degradation of target protein Tau (decrease in level vs Control) [6, 9]: can be degraded

monomer of p62 proteins [8]: decrease
p62 oligomers and high-molecular aggregates [8]: increase
Structure (SMILES): OCCNCc1ccc(OCc2ccccc2)c(OCc2ccccc2)c1 [YTK-1105]
